This passage reports TGI results from PubChem BioAssay (NCI).

Test systems include IGROV1 ovarian; HCT-116 colon; A498 renal; SF-268 CNS; OVCAR-4 ovarian; NCI-H23 lung; MOLT-4 leukemia; SR leukemia; T-47D breast; HOP-62 NSCLC; RPMI-8226 leukemia.
Holding throughout (assay): inhibition of tumour cell growth, NCI panel, 48 h

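Following 48 hours of exposure in 96-well plates, responses at five concentrations were used to interpolate endpoints linearly. At the TGI there is no net growth.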 A value given as a limit tells only on which side of the number the result lay.

Regarding `O=C(O)c1nc2cc(C(F)(F)F)ccc2[nH]c1=O`, the TGI in the test on IGROV1 ovarian, with HCT-116 colon, in the test on A498 renal, in the test with SF-268 CNS, with OVCAR-4 ovarian and in the test with NCI-H23 lung was more than 100 µM throughout. The TGI in the test with MOLT-4 leukemia, in the test with SR leukemia, in the test with T-47D breast, in the test with HOP-62 NSCLC and with RPMI-8226 leukemia was more than 100 µM in each case.

As for `NN/C(=N\S(=O)(=O)c1cccc2nsnc12)Nc1ccc(Cl)cc1`, the TGI in the test on IGROV1 ovarian, in the test with HCT-116 colon, in the test with A498 renal, in the test on SF-268 CNS, in the test with OVCAR-4 ovarian and in the test with NCI-H23 lung was more than 100 µM in each case. The TGI in the test on MOLT-4 leukemia, with SR leukemia, in the test on T-47D breast, in the test on HOP-62 NSCLC and in the test on RPMI-8226 leukemia was more than 100 µM in each case.

For `CN(C)c1ccc(/C=C2\N=C(c3ccccc3)N(/N=C3\C(=O)Nc4ccccc43)C2=O)cc1`, the TGI in the test on IGROV1 ovarian, in the test with HCT-116 colon, in the test on A498 renal, in the test with SF-268 CNS, with OVCAR-4 ovarian and with NCI-H23 lung was more than 100 µM throughout. The TGI in the test on MOLT-4 leukemia, with SR leukemia, in the test on T-47D breast and in the test on HOP-62 NSCLC was more than 100 µM in each case.

`COC(=O)C(CCSc1ccccc1)C(=O)OC`: the TGI in the test with IGROV1 ovarian, with HCT-116 colon, with A498 renal, in the test on OVCAR-4 ovarian, in the test on NCI-H23 lung and in the test on MOLT-4 leukemia was more than 100 µM in each case. In addition, the TGI in the test on SR leukemia, in the test on T-47D breast, with HOP-62 NSCLC and with RPMI-8226 leukemia was more than 100 µM each time.

`Cc1ccc(N=Nc2c(C)nn(C(=O)CC(=O)Nc3ccc(Cl)cc3)c2C)cc1C`: the TGI in the test with IGROV1 ovarian, in the test on HCT-116 colon, with A498 renal, in the test with SF-268 CNS, in the test on OVCAR-4 ovarian and in the test with NCI-H23 lung was more than 100 µM throughout. Further, the TGI in the test on MOLT-4 leukemia was 66 µM; in the test with SR leukemia, 39.7 µM; in the test on T-47D breast, more than 100 µM; in the test with HOP-62 NSCLC, more than 100 µM; in the test on RPMI-8226 leukemia, more than 100 µM.

Consider `O=C(/C=C/c1ccc(O)cc1)c1cc(O)cc(O)c1`, for which the TGI in the test with IGROV1 ovarian was determined as 26.6 µM; in the test with HCT-116 colon it was 26.3 µM; in the test with A498 renal it was 28.1 µM; with SF-268 CNS it was 54.3 µM; in the test on OVCAR-4 ovarian it was 44.6 µM; in the test on NCI-H23 lung, 43.3 µM. Further, the TGI is 45.3 µM in the test with MOLT-4 leukemia, 33 µM with T-47D breast, 29 µM in the test on HOP-62 NSCLC and 21.3 µM in the test on RPMI-8226 leukemia.

With `CC(C)N(C(=O)c1ccc(NCc2cc(O)ccc2O)cc1)C(C)C`, the TGI came to 64.8 µM in the test on IGROV1 ovarian; 29.6 µM in the test with HCT-116 colon; 62.2 µM in the test with A498 renal; 36.2 µM in the test with SF-268 CNS; 28.3 µM with OVCAR-4 ovarian; 42.2 µM with NCI-H23 lung. Moreover, the TGI with MOLT-4 leukemia was more than 100 µM; in the test on SR leukemia, more than 100 µM; with T-47D breast it was 40.7 µM; in the test with HOP-62 NSCLC, 69.4 µM.

`CCN(CC)C(=O)N[C@@H](Cc1ccccc1)C(=O)NC`: the TGI with IGROV1 ovarian, in the test with HCT-116 colon, with A498 renal, with SF-268 CNS, with OVCAR-4 ovarian and in the test with NCI-H23 lung was more than 100 µM in each case. Moreover, the TGI in the test on MOLT-4 leukemia, in the test with SR leukemia, in the test on T-47D breast, in the test with HOP-62 NSCLC and in the test on RPMI-8226 leukemia was more than 100 µM in each case.

As for `Cc1n(-c2ccccc2)c2c([n+]1Cc1ccc([N+](=O)[O-])cc1)C(=O)c1ccccc1C2=O`, the TGI with IGROV1 ovarian came to 2.23 µM; in the test with HCT-116 colon, 4.36 µM; with A498 renal it was 25.5 µM; with SF-268 CNS it was 3.71 µM; in the test on OVCAR-4 ovarian, 3.2 µM; in the test with NCI-H23 lung, 5.22 µM. Besides, the TGI amounted to 2.57 µM in the test on MOLT-4 leukemia; 4.9 µM in the test with SR leukemia; 3.43 µM in the test on T-47D breast; 16.6 µM with HOP-62 NSCLC; 3.82 µM in the test on RPMI-8226 leukemia.

As for `CSc1n[nH]c2n[nH]c(C)c12`, the TGI in the test on IGROV1 ovarian, with HCT-116 colon, with A498 renal, in the test on SF-268 CNS, in the test with OVCAR-4 ovarian and in the test with NCI-H23 lung was more than 100 µM in each case. Besides, the TGI in the test on MOLT-4 leukemia, with SR leukemia, in the test on T-47D breast, in the test with HOP-62 NSCLC and in the test with RPMI-8226 leukemia was more than 100 µM throughout.

As to `CCOC(=O)NC(C(C(=O)OCC)C(=O)OCC)(C(F)(F)F)C(F)(F)F`, the TGI in the test on IGROV1 ovarian, in the test on HCT-116 colon, with A498 renal, in the test with SF-268 CNS, with OVCAR-4 ovarian and in the test on NCI-H23 lung was more than 100 µM each time. The TGI with MOLT-4 leukemia, with SR leukemia, in the test on T-47D breast, in the test with HOP-62 NSCLC and in the test with RPMI-8226 leukemia was more than 100 µM throughout.

Consider `C=CCOCn1ccc(NC(=O)c2ccccc2)nc1=O`, for which the TGI in the test with IGROV1 ovarian, with HCT-116 colon, in the test on A498 renal, with SF-268 CNS, in the test on NCI-H23 lung and in the test on MOLT-4 leukemia was more than 100 µM each time. Also, the TGI in the test on SR leukemia, with T-47D breast, in the test on HOP-62 NSCLC and in the test on RPMI-8226 leukemia was more than 100 µM throughout.

For `C=CCN1C[C@@H](C)N([C@@H](c2ccccc2)c2ccc(C(=O)N(CC)CC)cc2)C[C@@H]1C`, the TGI in the test with IGROV1 ovarian, with HCT-116 colon, in the test on A498 renal, with SF-268 CNS, in the test with OVCAR-4 ovarian and in the test with NCI-H23 lung was more than 100 µM throughout. Further, the TGI with MOLT-4 leukemia, in the test with SR leukemia, in the test on T-47D breast, with HOP-62 NSCLC and in the test on RPMI-8226 leukemia was more than 100 µM each time.
